The subject of experiment [1] is polymorphonuclear leucocytes (PMNL). In words: Test 2: Release of oxygen radicals from human PMNL. Format: cell-based. As to conditions: read-out: Test 2 residual activity (release of oxygen radicals), percent of control. The procedure:
Isolation of polymorphonuclear leucocytes (PMNL) from human peripheral blood for carrying out tests 1 and 2 10 ml of human blood were diluted with 10 ml of HBSS (Serva) and underlaid with 15 ml of Lymphoprep (Dr. Molter GmbH, Heidelberg). The sample was then centrifuged for 25 minutes at 400×g (1600 revolutions per minute, Minifuge 2, Heraeus, Osterode). […] A white ring, composed of mononuclear cells, is located between these two phases. The lowermost phase is composed of erythrocytes which are covered with a white layer of PMNL. The uppermost phase, and also the Lymphoprep and the white ring, were carefully removed using a syringe. The remaining sediment was carefully resuspended in 15 ml of 3% dextran in PM16 (mw: 485,000, Sigma, Deisenhofen). The suspension was then left to stand at room temperature for one hour. During this time, the erythrocytes sedimented while the PMNL remained in the supernatant. The supernatant was removed, diluted with an approximately equal volume of PM16, and centrifuged for 15 minutes at 400×g. Should the PMNL sediment be heavily contaminated with erythrocytes, it is necessary to carry out a hypotonic lysis. To do this, the sediment was resuspended in 750 μl of water. After exactly 15 seconds, the suspension was diluted with approximately 7 ml of PM16 and centrifuged for 10 minutes at 400×g. If necessary, this lysis was repeated once more. Otherwise, the PMNL sediment was resuspended in a suitable medium.
The PMNL were resuspended (5·10^6 cells/ml) in Dulbecco's PBS, supplemented with 7.5 mM glucose. Care must be taken to ensure that the PMNL are free of erythrocytes. 100 μl of PMNL, 700 μl of PBS+glucose and 100 μl of cytochrome C (9.38 mg/ml of PBS+glucose) were mixed in a semi-microcuvette. 100 μl of PMNL, 500 μl of PBS+glucose, 100 μl of cytochalasin B ([…]), 100 μl of TNF (0.05 ng) and 100 μl of cytochrome C (9.38 mg/ml of PBS+glucose) were mixed for the fMLP-induced release of oxygen. Measurements were made in a double-beam photometer meter (Perkin-Elmer 552 S) at a wavelength of 550 nm. The measurement range is 0-1 extinction units. The cuvettes were temperature-equilibrated to 37° C. The reference cuvette additionally contained 10 μl of SOD (6 mg of SOD/ml of PBS+glucose). Following a preincubation of 5 minutes, the reaction is started with 100 μl of inducer. The reaction is started with 1·10^-7 mol of fMLP.
(§1) The values in the table show the concentration of the test substance which was employed in μM and, besides this, the residual activity measured in percent based on the control, which was set to be 100%. The interleukin is additionally indicated in test 4.

In another experiment the test system is adjuvant/arthritis model. In words: Test 6: antiarthritic effect in the adjuvant/arthritis model. The conditions noted are these: Rattus norvegicus, po, 408 h, daily for 17 days, rat, read-out: Test 6 Paw volume (% inhibition); for inhibition in vivo at 25 mg/kg: 25 mg/kg orally; for inhibition in vivo at 50 mg/kg: 50 mg/kg orally. Format: in vivo, rat (Wistar-Lewis).

The test system of experiment [2] is polymorphonuclear leucocytes (PMNL). In words: Test 1: Release of proteolytic activity from human PMNL. As to conditions: Homo sapiens, PMNL, read-out: Test 1 residual activity (release of proteolytic activity), percent of control. The format is cell-based. The procedure: Isolation of polymorphonuclear leucocytes (PMNL) from human peripheral blood for carrying out tests 1 and 2 10 ml of human blood were diluted with 10 ml of HBSS (Serva) and underlaid with 15 ml of Lymphoprep (Dr. Molter GmbH, Heidelberg). […] A white ring, composed of mononuclear cells, is located between these two phases. The lowermost phase is composed of erythrocytes which are covered with a white layer of PMNL. The uppermost phase, and also the Lymphoprep and the white ring, were carefully removed using a syringe. The remaining sediment was carefully resuspended in 15 ml of 3% dextran in PM16 (mw: 485,000, Sigma, Deisenhofen). The suspension was then left to stand at room temperature for one hour. During this time, the erythrocytes sedimented while the PMNL remained in the supernatant. The supernatant was removed, diluted with an approximately equal volume of PM16, and centrifuged for 15 minutes at 400×g. Should the PMNL sediment be heavily contaminated with erythrocytes, it is necessary to carry out a hypotonic lysis. To do this, the sediment was resuspended in 750 μl of water. After exactly 15 seconds, the suspension was diluted with approximately 7 ml of PM16 and centrifuged for 10 minutes at 400×g. If necessary, this lysis was repeated once more. Otherwise, the PMNL sediment was resuspended in a suitable medium. 250 μl of PMNL (5·10^6 cells/ml of PBS containing 7.5 mM glucose) were incubated at 37° C. for 20 minutes with 1 μl of test substance. 1 μl of cytochalasin B (5 μg/ml of test mixture) was then added and the mixture was incubated at 37° C. for a further 5 minutes. Following the addition of 1 μl of […] necrosis factor alpha (TNF; 30 ng/ml of test mixture), the incubation was continued for 5 minutes. The release was started using 1 μl of fMLP (10 nmol/l of test mixture). After 60 minutes at 37° C., the reaction was terminated by cooling the samples down to 0° C. The samples were then centrifuged, and the supernatant was removed and frozen down. Cytochalasin B and fMLP were dissolved in DMSO and TNF was diluted with buffer. 50 μl of the supernatant were mixed with 175 μl of buffer (100 mM HEPES, pH 7.5; 500 mM NaCl) in a 96-well microtiter plate. Following the addition of 25 μl of substrate (methoxysuccinyl-[…]-nitroanilide), the extinction of each well was measured at 405 nm after 0, 5, 10, 15, 30 and 60 minutes. […] The interleukin is additionally indicated in test 4.

For experiment [3], the system named is tumor cell line 20-10-5S (hybridoma cell line). In words: Test 8: Inhibition of tumor cell proliferation. Format: cell-based. As to conditions: 48 h + 16 h tritiated thymidine incorporation; 20-10-5S cells. In general terms: Dividing cells build labelled thymidine or BrdU into new DNA.
Experiment [4] concerns cyclooxygenase-dependent thrombocyte aggregation. The experiment can be described thus: Test 5: Cyclooxygenase-dependent thrombocyte aggregation. As to conditions: Homo sapiens, arachidonic acid as inducer, read-out: Test 5 residual activity (cyclooxygenase-dependent thrombocyte aggregation), percent of control. Format: cell-based, human. In a few lines:
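Citrated human platelet-rich plasma was preincubated 10 min at 37 °C with test substance diluted 1:30 in 50 mM Tris-HCl pH 8.0, 90 mM NaCl. Aggregation was triggered with arachidonic acid (5 mg/ml, 20 μl) under 800 rpm stirring in an aggregometer. Values are tested concentration (μM) and residual activity as % of control.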

For experiment [5], the system named is leukotriene B4 synthesis in white blood cells. In words: Test 3: LTB4 formation by white blood cells. As to conditions: Homo sapiens, read-out: Test 3 residual activity (LTB4 formation), percent of control. Format: cell-based. Here is the method:
TEST 3. LTB4 formation by white blood cells
Isolation of white blood cells:
40 ml of human blood were mixed with 8 ml of 6% dextran solution (dextran, mw: 480,000 in PM16). After one hour at room temperature, the supernatant,which was composed of white blood cells, was removed, diluted with an equal volume of PM16, and centrifuged for 15 minutes at 300×g (1600 rpm). The sediment was next resuspended in approximately 5-6 ml of PM16 and, once the cell count had been determined in a Coulter Counter, adjusted to 10^7 cells/ml.
The test mixture comprised 0.24 ml of cell suspension, 0.03 ml of 20 mM CaCl2 /5 mM MgCl2 and 5 μl of test substance. Following 15 minutes of preincubation at 37° C., the reaction was started with 0.03 ml of A23187/glutathione (100 μg of A23187/ml; 15.4 μg of glutathione/ml). The incubation was terminated after 5 minutes at 37° C. by immediate cooling of the samples down to 0° C. After centrifuging for 2 minutes in an Eppendorff Centrifuge (0° C.), the supernatant was removed and examined chromatographically.
High pressure liquid chromatography (HPLC): the HPLC equipment comprises a Kratos pump (Spectro-flow 400), a cooled automatic BT 7041 sample injector (Biotronik) having a 75 μl sample loop, a Nucleosil C18 column (100*3 mm, 5 μm particles of Chrompack), a UV detector (Kratos) Spectroflow 757 (wavelength: 280 nm, measurement range: 0.1 AUFS, time constant: 0.5 s) and a Spectra Physics integrator (SP 4270). The eluent (725 ml of methanol, 275 ml of water and 0.1 ml of acetic acid) was supplied at a flow rate of 0.7 ml/minute and at a pressure of about 100 bar.
When doing this, the measurement range which has been set can be examined and altered if necessary. It is also vital to measure the test substances at the particular test concentration (e.g.: 10^-5 M) in PM16 before the cell incubation, since the test substances might conceal the LTB4 peak. If this is the case, a lower concentration must be selected.
as §1

Experiment [6] deals with PAF-induced asthma attack. The experiment can be described thus: Test 7: antiasthmatic effect, PAF-induced asthma attack. The format is in vivo. As to conditions: Cavia porcellus; i.d., 15 minutes before PAF; guinea pig. The procedure:
Test 7: Testing for antiasthmatic effect
Anesthetized guinea pigs, which were cannulated in the jugular vein to allow injection of the PAF, were used for testing for antiasthmatic effect. The test preparations were also administered intravenously (i.v.), 5 min before PAF administration, into the blood stream through the same venous cannula, or else administered intraduodenally (i.d.), 15 minutes before the PAF, through an opening in the duodenum which had been installed and cannulated surgically. The bronchial width was recorded in an overflow pneumonogram before and after administering the preparation. Evaluation: ED50 in mg/kg i.d. as compared with the PAF-induced asthma attack.

Counter-ions that a name gives are not always drawn.

Procedure for adjuvant/arthritis model: Male rats of a Wistar-Lewis strain (Mollegaard/Denmark) were used as experimental animals. The body weight is between 160 and 200 g. Subplantar injection of 0.1 ml of Freund's adjuvant (=6 mg of Mycobacterium butyricum suspension, Difco Lab./Detroit, Mich. USA, per ml of heavy white paraffin oil, Merck, Darmstadt) into the root of the tail resulted, on the 10th to 14th day of the experiment, in immunopathological processes and chronic inflammations, particularly in the form of arthritic and periarthritic symptoms, at other sites in the body (secondary lesions). The animals were fed ad libitum with the standard feed Altromin-R, from Altrogge, Lage, and provided with tap water. The animals were given 60 mg of codein per kg as an analgesic from the 14th day to the end of the experiment. The test substances were administered orally as a CMC suspension, in an injection volume of 1 ml/100 g of body weight, on each day (in all for 17 days), beginning on the day of the adjuvant administration. The volumes of each of the hind paws, and the body weight, were measured on the first and on the 18th day of the experiment. Diminution in the increase of paw volume, as compared with the untreated control group, served as the criterion of activity, with the two hind paws being averaged.

With `C[C@@H](O)[C@@H]1CC(c2cc(C(C)(C)C)c(O)c(C(C)(C)C)c2)=NO1` (relative stereo) [Example 19], the activity at 10 µM in experiment [1] is 94%; in experiment [2] it was 78%; in experiment [4] it was 100%. In addition, the inhibition in vivo at 25 mg/kg with adjuvant/arthritis model was found to be 85%. For the same compound, the activity at 100 µM in experiment [2] was 20%. In addition, in experiment [3], the IC50 (in general, the midpoint of a concentration-inhibition curve) was below 5 µM.
For the compound `CC(C)(C)c1cc(C2=NOC(CO)C2)cc(C(C)(C)C)c1O` (stereo not drawn) [Example 1, 3-(4-Hydroxy-3,5-di-tert-butylphenyl)-5-hydroxymethyl-2-isoxazoline], the inhibition in vivo at 50 mg/kg in the experiment with adjuvant/arthritis model is 70%. Besides, the activity at 10 µM in experiment [5] was 92%; in experiment [4] it was 93%. The IC50 in experiment [3] lay in the range of 5 to 10 µM. Further, the ED50 (in general, the dose at which the effect has come halfway, by size or by number of responders) in experiment [6] is 10 to 50 mg/kg.
For `CC(C)(C)c1cc(C2=NOC(c3ccsc3)C2)cc(C(C)(C)C)c1O` (stereo not drawn) [Example 8], in the experiment on adjuvant/arthritis model, the inhibition in vivo at 50 mg/kg was determined as 67%. The activity at 1 µM in experiment [5] (1 μM) was determined as 93%. Further, in experiment [5], the activity at 10 µM turned out to be 15%. Further, the IC50 in experiment [3] was below 5 µM. Further, the activity at 100 µM in experiment [4] (100 μM) came to 91%. Besides, the ED50 in experiment [6] is around 10 mg/kg.
For `CC(=O)C1CC(c2cc(C(C)(C)C)c(O)c(C(C)(C)C)c2)=NO1` (stereo not drawn) [Example 13], the activity at 10 µM is 65% in experiment [1], 77% in experiment [2] and 98% in experiment [4]. Besides, the activity at 25 µM in experiment [1] (25 μM) turned out to be 22%. Also, the inhibition in vivo at 50 mg/kg in the experiment on adjuvant/arthritis model was 84%. Also, in experiment [2], the activity at 100 µM is 20%. For the same compound, in experiment [3], the IC50 was 6.1 µM. Moreover, the ED50 in experiment [6] is around 50 mg/kg.
Take `CC(=O)c1cc(-c2cc(C(C)(C)C)c(O)c(C(C)(C)C)c2)no1` [Example 59, 3-(4-Hydroxy-3,5-di-tert-butylphenyl)-5-acetylisoxazole]: in experiment [1], the activity at 1 µM worked out at 135% and the activity at 10 µM is 48%. Also, the activity at 1 µM in experiment [2] (1 μM) was found to be 91%. In addition, in experiment [2], the activity at 10 µM is 61% and the activity at 100 µM came to 35%. The IC50 in experiment [3] is 30 µM. The same compound had an ED50 in experiment [6] of 1 to 3 mg/kg.
For `CC(OC(=O)[C@@H](N)Cc1ccccc1)c1cc(-c2cc(C(C)(C)C)c(O)c(C(C)(C)C)c2)no1` (stereo partly drawn) [Example 70, L-Phenylalanine-1-(3-(4-hydroxy-3,5-di-tert-butylphenyl)isoxazol-5-yl)ethylester hydrochloride], the activity at 10 µM in experiment [1] is 22%. The inhibition in vivo at 25 mg/kg in the experiment on adjuvant/arthritis model is 59%. Moreover, in experiment [3], the IC50 is 5 µM.
Regarding `CC(OC(=O)[C@@H](N)Cc1ccccc1)C1CC(c2cc(C(C)(C)C)c(O)c(C(C)(C)C)c2)=NO1` (stereo partly drawn) [Example 73, L-Phenylalanine-1-(3-(4-hydroxy-3,5-di-tert-butylphenyl)-2-isoxazolin-5-yl)ethyl ester hydrochloride], in experiment [1], the activity at 1 µM came out at 100% and the activity at 10 µM amounted to 9%. Also, in the experiment with adjuvant/arthritis model, the inhibition in vivo at 50 mg/kg was 73%. Besides, the activity at 25 µM in experiment [4] (25 μM) turned out to be 100%.

The record behind these values is patent publication US5814627A, “3, 5-disubstituted and 3, 4, 5-trisubstituted 2-isoxazolines and isoxazoles, process for their preparation and their use as pharmaceuticals” (Hoechst Aktienegesellschaft, priority 1994, dated 1998).
